This passage reports IC50 results from patent US11926616B2, “Aminopyrazine diol compounds as PI3K-γ inhibitors” (Incyte Corporation, priority 2018, dated 2024).

Where two headings read alike, the source gives them in different places.

Usually IC50 stands for the concentration at which inhibition is half-maximal.

The target in experiment [1] is PI3Kδ (p110δ/p85α) Recombinant Human Protein (Homo sapiens (Human), UniProt O00329). As to the kind of experiment: PI3Kδ Scintillation Proximity Assay. The settings on record: 20 μM PIP2, 2 μM ATP, 3.4 nM PI3Kδ, 120 min, room temperature. It is filed as biochemical. From the text:
Example C. PI3Kδ Scintillation Proximity Assay Materials: [γ-^33P]ATP (10 mCi/mL) and Wheat Germ Agglutinin (WGA) YSi SPA Scintillation Beads was purchased from Perkin Elmer (Waltham, MA). Lipid kinase substrate, D-myo-Phosphatidylinositol 4,5-bisphosphate (PtdIns(4,5)P2)D (+)-sn-1,2-di-O-octanoylglyceryl, 3-O-phospho linked (PIP2), CAS 204858-53-7, was purchased from Echelon Biosciences (Salt Lake City, UT). PI3Kδ (p110δ/p85α) Recombinant Human Protein was purchased from Eurofins (St Charles, MO). ATP, MgCl2, DTT, EDTA, MOPS and CHAPS were purchased from Sigma Aldrich (St. Louis, MO). The kinase reaction was conducted in polystyrene 384-well Greiner Bio-one white plate from Thermo Fisher Scientific in a final volume of 25 μL. Inhibitors were first diluted serially in DMSO and added to the plate wells before the addition of other reaction components. The final concentration of DMSO in the assay was 2%. The PI3Kδ assay was carried out at room temperature in 20 mM MOPS, pH 6.7, 10 mM MgCl2, 5 mM DTT and CHAPS 0.03%. Reactions were initiated by the addition of ATP, the final reaction mixture consisted of 20 μM PIP2, 2 μM ATP, […] [γ-^33P] ATP, 3.4 nM PI3Kδ. Reactions were incubated for 120 min and terminated by the addition of 40 μL SPA beads suspended in quench buffer: 163 mM potassium phosphate pH 7.8, 20% glycerol, 25 mM EDTA. The final concentration of SPA beads is 1.0 mg/mL. After the plate sealing, plates were shaken overnight at room temperature and centrifuged at 1500 rpm for 10 min, the radioactivity of the product was determined by scintillation counting on Topcount (PerkinElmer). IC50 determination was performed by fitting the curve of percent of the solvent control activity versus the log of the inhibitor concentration using the GraphPad Prism 6.0 software.

Experiment [2] has as its target PI3Kγ (p110γ) Recombinant Human Protein (Homo sapiens (Human), UniProt P48736). Description: PI3K-γ Scintillation Proximity Assay. The settings on record: 20 μM PIP2, 2 μM ATP, 13 nM PI3Kγ, 120 min, room temperature. It is filed as biochemical. From the text:
Example B. PI3K-γ Scintillation Proximity Assay Materials: [γ-^33P]ATP (10 mCi/mL) and Wheat Germ Agglutinin (WGA) YSi SPA Scintillation Beads was purchased from Perkin Elmer (Waltham, MA). Lipid kinase substrate, D-myo-Phosphatidylinositol 4,5-bisphosphate (PtdIns(4,5)P2)D (+)-sn-1,2-di-O-octanoylglyceryl, 3-O-phospho linked (PIP2), CAS 204858-53-7, was purchased from Echelon Biosciences (Salt Lake City, UT). PI3Kγ (p110γ) Recombinant Human Protein was purchased from Life technology (Grand Island, NY). ATP, MgCl2, DTT, EDTA, MOPS and CHAPS were purchased from Sigma Aldrich (St. Louis, MO). The kinase reaction was conducted in polystyrene 384-well Greiner Bio-one white plate from Thermo Fisher Scientific in a final volume of 25 μL. Inhibitors were first diluted serially in DMSO and added to the plate wells before the addition of other reaction components. The final concentration of DMSO in the assay was 2%. The PI3Kγ assay was carried out at room temperature in 20 mM MOPS, pH 6.7, 10 mM MgCl2, 5 mM DTT and CHAPS 0.03%. Reactions were initiated by the addition of ATP, the final reaction mixture consisted of 20 μM PIP2, 2 μM ATP, 0.5 μCi [γ-^33P] ATP, 13 nM PI3Kγ. Reactions were incubated for 120 min and terminated by the addition of 40 μL SPA beads suspended in quench buffer: 163 mM potassium phosphate pH 7.8, 20% glycerol, 25 mM EDTA. The final concentration of SPA beads is 1.0 mg/mL. After the plate sealing, plates were shaken overnight at room temperature and centrifuged at 1500 rpm for 10 min, the radioactivity of the product was determined by scintillation counting on Topcount (Perkin-Elmer). IC50 determination was performed by fitting the curve of percent of the solvent control activity versus the log of the inhibitor concentration using the GraphPad Prism 6.0 software.
Background: SPA uses beads or plates that emit light when radiolabelled molecules are held near them.

In experiment [3] the test system is Phosphorylated Ribosomal Protein S6 (RPS6) in THP-1 cells. As to the kind of experiment: THP-1 RPS6 ELISA Assay. It is filed as cell-based, Human. As to conditions: Homo sapiens. The procedure:
Example A. THP-1 RPS6 ELISA Assay
To measure the Phosphorylated Ribosomal Protein S6 (RPS6) in cell lysates, THP-1 cells (Human Acute Monocytic Leukemia) are purchased from ATCC (Manassas, VA) and maintained in RPMI with 10% FBS (Gibco/Life Technologies, Carlsbad, CA). For the assay, THP-1 cells are serum starved overnight in RPMI, then plated in RPMI (2×10^5 cells/well in 90 μL) into 96-well flat-bottom tissue culture treated plates (Corning, Corning, NY), in the presence or absence of a concentration range of test compounds. Covered plates are incubated for 2 hours at 37° C., 5% CO2 then treated with or without 10 nM MCP-1(MYBioSource, San Diego, CA) for 15 minutes at 37° C., 5% CO2. Plates are centrifuged at 1600 RPM and supernatants are removed. Cells are lysed in Lysis Buffer (Cell Signaling, Danvers, MA) with Protease Inhibitor (Calbiochem/EMD, Germany), PMSF (Sigma, St Louis MO), HALTS (Thermo Fisher, Rockford, IL) for 30 min on wet ice. Cell lysates are frozen at −80° C. before testing. The lysates are tested in the Human/Mouse/Rat Phospho-RPS6 ELISA (R&D Systems, Inc. Minn, MN). The plate is measured using a microplate reader (SpectraMax M5—Molecular Devices, LLC Sunnyvale, CA) set to 450 nm with a wavelength correction of 540. IC50 determination is performed by fitting the curve of inhibitor percent inhibition versus the log of the inhibitor concentration using the GraphPad Prism 5.0 software.

[4] abbreviates: THP-1 cells, serum starved, 2 hours compound, 10 nM MCP-1 for 15 minutes, Phospho-RPS6 ELISA, read-out: PI3Kγ_THP1_RPS6_ELISA IC50.

Sequence of PI3Kγ (p110γ) Recombinant Human Protein (P48736 whole entry): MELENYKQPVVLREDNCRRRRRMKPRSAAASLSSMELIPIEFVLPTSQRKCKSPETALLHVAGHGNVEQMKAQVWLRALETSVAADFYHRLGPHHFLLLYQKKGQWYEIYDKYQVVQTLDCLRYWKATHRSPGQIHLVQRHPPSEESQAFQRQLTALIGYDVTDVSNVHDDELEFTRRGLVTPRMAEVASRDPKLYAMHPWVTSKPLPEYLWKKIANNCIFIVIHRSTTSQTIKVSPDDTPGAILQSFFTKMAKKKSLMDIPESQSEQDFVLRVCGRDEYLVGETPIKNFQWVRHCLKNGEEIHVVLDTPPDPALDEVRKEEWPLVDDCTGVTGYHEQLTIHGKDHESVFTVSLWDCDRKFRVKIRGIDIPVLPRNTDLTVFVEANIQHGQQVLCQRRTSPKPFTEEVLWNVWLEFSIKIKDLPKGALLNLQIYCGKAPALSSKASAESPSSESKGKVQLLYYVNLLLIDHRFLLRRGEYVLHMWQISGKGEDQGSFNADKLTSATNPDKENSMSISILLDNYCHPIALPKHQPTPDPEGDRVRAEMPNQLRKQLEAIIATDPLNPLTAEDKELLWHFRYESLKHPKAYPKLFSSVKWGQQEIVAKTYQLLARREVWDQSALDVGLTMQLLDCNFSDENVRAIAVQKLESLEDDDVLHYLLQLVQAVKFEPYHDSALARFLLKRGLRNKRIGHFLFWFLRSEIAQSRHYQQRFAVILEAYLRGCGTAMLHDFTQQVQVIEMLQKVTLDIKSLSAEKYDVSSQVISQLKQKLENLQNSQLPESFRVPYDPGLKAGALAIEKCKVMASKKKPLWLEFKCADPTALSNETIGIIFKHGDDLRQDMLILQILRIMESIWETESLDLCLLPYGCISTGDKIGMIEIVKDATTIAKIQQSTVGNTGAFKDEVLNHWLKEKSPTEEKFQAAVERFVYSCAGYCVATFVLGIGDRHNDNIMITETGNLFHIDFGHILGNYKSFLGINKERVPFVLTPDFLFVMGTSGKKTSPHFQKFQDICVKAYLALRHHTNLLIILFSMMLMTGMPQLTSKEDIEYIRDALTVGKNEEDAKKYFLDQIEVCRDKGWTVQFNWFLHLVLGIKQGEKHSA
Sequence of PI3Kδ (p110δ/p85α) Recombinant Human Protein (O00329 whole entry): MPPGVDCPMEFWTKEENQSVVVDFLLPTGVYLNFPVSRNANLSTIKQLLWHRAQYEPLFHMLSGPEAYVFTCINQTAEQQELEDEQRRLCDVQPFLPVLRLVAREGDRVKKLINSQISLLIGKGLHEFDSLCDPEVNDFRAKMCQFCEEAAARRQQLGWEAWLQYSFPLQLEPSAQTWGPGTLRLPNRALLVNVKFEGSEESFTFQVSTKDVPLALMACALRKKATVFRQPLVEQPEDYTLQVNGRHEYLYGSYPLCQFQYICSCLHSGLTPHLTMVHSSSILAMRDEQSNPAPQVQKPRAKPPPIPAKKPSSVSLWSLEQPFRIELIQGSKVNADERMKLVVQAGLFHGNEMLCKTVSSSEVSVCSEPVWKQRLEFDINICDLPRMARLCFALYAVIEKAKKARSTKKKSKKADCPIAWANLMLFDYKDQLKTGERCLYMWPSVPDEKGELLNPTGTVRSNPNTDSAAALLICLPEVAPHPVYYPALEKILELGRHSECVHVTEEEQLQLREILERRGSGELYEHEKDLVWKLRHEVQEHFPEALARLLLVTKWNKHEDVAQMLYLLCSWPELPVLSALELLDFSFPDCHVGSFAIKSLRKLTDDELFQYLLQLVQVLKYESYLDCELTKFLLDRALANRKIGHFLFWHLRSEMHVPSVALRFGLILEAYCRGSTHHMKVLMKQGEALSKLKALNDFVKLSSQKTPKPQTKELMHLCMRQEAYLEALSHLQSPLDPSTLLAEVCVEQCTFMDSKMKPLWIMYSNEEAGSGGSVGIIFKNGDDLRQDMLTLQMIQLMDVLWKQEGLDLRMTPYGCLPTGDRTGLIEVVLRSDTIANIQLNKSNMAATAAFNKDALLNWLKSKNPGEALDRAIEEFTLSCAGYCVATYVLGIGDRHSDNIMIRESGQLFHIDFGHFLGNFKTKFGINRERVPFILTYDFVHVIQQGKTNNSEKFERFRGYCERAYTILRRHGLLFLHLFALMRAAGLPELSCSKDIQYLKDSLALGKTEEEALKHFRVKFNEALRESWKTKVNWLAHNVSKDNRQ
Sequence of PI3Kδ (p110δ/p85α) Recombinant Human Protein (P27986 whole entry partner): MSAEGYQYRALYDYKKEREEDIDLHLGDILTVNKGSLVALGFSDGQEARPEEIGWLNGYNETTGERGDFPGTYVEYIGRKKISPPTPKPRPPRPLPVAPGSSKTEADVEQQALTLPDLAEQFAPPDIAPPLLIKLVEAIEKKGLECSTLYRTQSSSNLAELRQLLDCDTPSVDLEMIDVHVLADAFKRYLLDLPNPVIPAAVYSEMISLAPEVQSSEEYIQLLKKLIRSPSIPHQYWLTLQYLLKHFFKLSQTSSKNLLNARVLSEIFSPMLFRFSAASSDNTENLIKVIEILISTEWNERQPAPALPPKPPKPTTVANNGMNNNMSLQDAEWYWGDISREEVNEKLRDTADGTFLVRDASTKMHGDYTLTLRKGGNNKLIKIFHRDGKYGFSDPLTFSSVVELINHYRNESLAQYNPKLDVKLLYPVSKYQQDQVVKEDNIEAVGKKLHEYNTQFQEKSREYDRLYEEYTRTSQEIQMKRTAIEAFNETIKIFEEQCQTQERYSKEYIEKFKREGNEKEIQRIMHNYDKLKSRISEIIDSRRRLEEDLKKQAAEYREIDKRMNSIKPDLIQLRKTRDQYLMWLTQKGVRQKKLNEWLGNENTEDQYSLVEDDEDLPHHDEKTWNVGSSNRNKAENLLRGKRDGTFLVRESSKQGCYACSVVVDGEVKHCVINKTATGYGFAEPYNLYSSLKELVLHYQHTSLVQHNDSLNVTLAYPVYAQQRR

With `[2H]C([2H])([2H])n1nccc1-c1nc(-c2cc(C(O)(CO)C(F)(F)F)ccc2C)cnc1N` (single isomer, unassigned) [Example 1b, 2-(3-(5-Amino-6-(1-(methyl-d3)-1H-pyrazol-5-yl)pyrazin-2-yl)-4-methylphenyl)-3,3,3-trifluoropropane-1,2-diol], the IC50 in experiment [1] and in experiment [2] was not above 500 nM in each case. On to `Cc1ccc(C(O)(CO)C(F)(F)F)cc1-c1cnc(N)c(-c2cnn(C)c2)n1` (single isomer, unassigned) [Example 2, 2-(3-(5-Amino-6-(1-methyl-1H-pyrazol-4-yl)pyrazin-2-yl)-4-methylphenyl)-3,3,3-trifluoropropane-1,2-diol], for which the IC50 in experiment [3] (setting [4]) was less than 100 nM.

As to `Cc1ccc(C(O)(CO)C(F)(F)F)cc1-c1cnc(N)c(-c2cn[nH]c2)n1` (single isomer, unassigned) [Example 3, 2-(3-(5-Amino-6-(1H-pyrazol-4-yl)pyrazin-2-yl)-4-methylphenyl)-3,3,3-trifluoropropane-1,2-diol], in experiment [3] (setting [4]), the IC50 is less than 100 nM. Consider `Cc1cc(-c2nc(-c3cc(C(O)(CO)C(F)(F)F)ccc3C)cnc2N)on1` (single isomer, unassigned) [Example 4, 2-(3-(5-Amino-6-(3-methylisoxazol-5-yl)pyrazin-2-yl)-4-methylphenyl)-3,3,3-trifluoropropane-1,2-diol], for which the IC50 in experiment [3] (setting [4]) was less than 100 nM. `Cc1ccc(C(O)(CO)C(F)(F)F)cc1-c1cnc(N)c(-c2cnsc2)n1` (single isomer, unassigned) [Example 5, 2-(3-(5-Amino-6-(isothiazol-4-yl)pyrazin-2-yl)-4-methylphenyl)-3,3,3-trifluoropropane-1,2-diol]: the IC50 in experiment [3] (setting [4]) was less than 100 nM. As to `Cc1ccc(C(O)(CO)C(F)(F)F)cc1-c1cnc(N)c(-c2ccns2)n1` (single isomer, unassigned) [Example 6, 2-(3-(5-Amino-6-(isothiazol-5-yl)pyrazin-2-yl)-4-methylphenyl)-3,3,3-trifluoropropane-1,2-diol], the IC50 in experiment [3] (setting [4]) is less than 100 nM. Same read-out and setting: the same measure for `Cc1cc(-c2nc(-c3cc(C(O)(CO)C(F)(F)F)ccc3C)cnc2N)sn1` (single isomer, unassigned) [Example 7, 2-(3-(5-amino-6-(3-methylisothiazol-5-yl)pyrazin-2-yl)-4-methylphenyl)-3,3,3-trifluoropropane-1,2-diol]: less than 100 nM; for `Cc1ncc(-c2nc(-c3cc(C(O)(CO)C(F)(F)F)ccc3C)cnc2N)s1` (single isomer, unassigned) [Example 10, 2-(3-(5-Amino-6-(2-methylthiazol-5-yl)pyrazin-2-yl)-4-methvlphenyl)-3,3,3-trifluoropropane-1,2-diol]: less than 100 nM; for `Cc1ccc(C(O)(CO)C(F)(F)F)cc1-c1cnc(N)c(-c2cnco2)n1` (single isomer, unassigned) [Example 11, 2-(3-(5-Amino-6-(oxazol-5-yl)pyrazin-2-yl)-4-methylphenyl)-3,3,3-trifluoropropane-1,2-diol]: less than 100 nM.

`Cc1ccc(C(O)(CO)C(F)(F)F)cc1-c1cnc(N)c(-n2ccnn2)n1` (single isomer, unassigned) [Example 13, 2-(3-(5-Amino-6-(1H-1,2,3-triazol-1-yl)pyrazin-2-yl)-4-methylphenyl)-3,3,3-trifluoropropane-1,2-diol]: in experiment [3] (setting [4]), the IC50 was less than 100 nM. On the same count and under the same terms, in the case of `Cc1ccc(C(O)(CO)C(F)(F)F)cc1-c1cnc(N)c(-n2cncn2)n1` (single isomer, unassigned) [Example 15, 2-(3-(5-Amino-6-(1H-1,2,4-triazol-1-yl)pyrazin-2-yl)-4-methylphenyl)-3,3,3-trifluoropropane-1,2-diol] it was less than 500 nM.

On to `Cc1ccc(C(O)(CO)C(F)(F)F)cc1-c1cnc(N)c(C(F)(F)F)n1` (single isomer, unassigned) [Example 25, 2-(3-(5-Amino-6-(trifluoromethyl)pyrazin-2-yl)-4-methylphenyl)-3,3,3-trifluoropropane-1,2-diol], for which the values for the IC50 in experiment [1] and in experiment [2] were not above 500 nM and not above 100 nM, respectively. For the compound `Cc1ccc(C(O)(CO)C(F)(F)F)cc1-c1cnc(N)c(C(=O)NC23CC(CO)(C2)C3)n1` (single isomer, unassigned) [Example 32], the IC50 in experiment [1] and in experiment [2] was not above 100 nM throughout. Take `[2H]C([2H])([2H])c1ccc(C(O)(CO)C(F)(F)F)cc1-c1cnc(N)c(C(=O)NC23CC(CO)(C2)C3)n1` (single isomer, unassigned) [Example 32]: the IC50 in experiment [3] (setting [4]) was less than 100 nM.

Consider `Cc1ccc(C(O)(CO)C(F)(F)F)cc1-c1cnc(N)c(C(=O)N[C@@H](C)CO)n1` (single isomer, unassigned) [Example 33], for which the IC50 in experiment [1] and in experiment [2] was not above 100 nM each time. On to `[2H]C([2H])([2H])c1ccc(C(O)(CO)C(F)(F)F)cc1-c1cnc(N)c(C(=O)N[C@@H](C)CO)n1` (single isomer, unassigned) [Example 33], for which, in experiment [3] (setting [4]), the IC50 was less than 100 nM. On to `Cc1ccc(C(O)(CO)C(F)(F)F)cc1-c1cnc(N)c(C(=O)NCC(C)(C)C#N)n1` (single isomer, unassigned) [Example 34], for which the IC50 in experiment [1] and in experiment [2] was not above 100 nM throughout.

For `[2H]C([2H])([2H])c1ccc(C(O)(CO)C(F)(F)F)cc1-c1cnc(N)c(C(=O)NCC(C)(C)C#N)n1` (single isomer, unassigned) [Example 34], the IC50 in experiment [3] (setting [4]) is less than 100 nM. Still for that read-out and setting: the same measure for `[2H]C([2H])([2H])c1ccc(C(O)(CO)C(F)(F)F)cc1-c1cnc(N)c(C(=O)NC23CCC(O)(CC2)C3)n1` (single isomer, unassigned) [Example 35]: less than 100 nM; for `[2H]C([2H])([2H])c1ccc(C(O)(CO)C(F)(F)F)cc1-c1cnc(N)c(C(=O)N[C@H](C)CO)n1` (single isomer, unassigned) [Example 36]: less than 500 nM. For the compound `Cc1ccc([C@](O)(CO)C(F)F)cc1-c1cnc(N)c(C(=O)NC(C)C)n1` (single isomer, unassigned) [Example 46], the IC50 in experiment [3] (THP-1, read-out: PI3Kγ_THP1_RPS6_ELISA IC50 (nM)) was less than 100 nM.
